# Results published in article PMC11206507, “Unraveling the Impact of Six Pentacyclic Triterpenes Regulating Metabolic Pathways on Lung Carcinoma Cells” (Pharmaceuticals, 2024).
# Test system: A549 cells
# Assay: Total ROS production assay (DCF)
# Assay type: cell-based, human
# Conditions: A549, IC25 (CisPt 25 μM), 24 h
# Procedure: The production of total ROS was determined using the 2′,7′-dichlorodihydrofluorescein diacetate (DCF) fluorescent dye. A549 cells were seeded in a concentration of 1 × 10^5 cells/mL into black 96-well plates with a clear bottom. After 24 h, the cells were incubated with the triterpenes (IC25) and controls for 24 h. Then, 50 μL of DCF (10 μM) was added to each well and they were incubated for 1 h at room temperature. Then, the fluorescence of each well was measured (Ex/Em = 485/530 nm) in the Tecan® M200 plate reader.
# This experiment was performed in triplicate. All data were expressed by plotting the values as an average of three measurements for each treatment condition as the mean ± SD and analyzed with the software GraphPad Prism 9. Statistical analysis was performed using one-way analysis of variance (ANOVA) to compare the mean value of each treated type of cells versus the control (untreated cells). The statistical significance defined by the software for p values was **** < 0.0001, *** from 0.001 to 0.0001, ** from 0.001 to 0.01, * from 0.01 to 0.05, and non-significant (ns) ≥ 0.05.
structure (smiles),measurement,value
"C=C(C)[C@@H]1CC[C@]2(C(=O)O)CC[C@]3(C)[C@H](CC[C@@H]4[C@@]5(C)CC[C@H](O)C(C)(C)[C@@H]5CC[C@]43C)[C@@H]12 [BeA, betulinic acid]",Total ROS production (in words),highest increase in total ROS
